Measurements published in EPA's ToxValDB 9.5 (doi:10.2903/j.efsa.2009.1348).
In brackets after ≈: the same amount, converted by molar mass.

Assays:
Oncorhynchus mykiss = details: chronic/long-term; duration: 28 days
Bird = details: for LD50: acute, unspecified
Apis mellifera = details: acute; duration: 48 hours; oral; unspecified; mortality
[1] = chronic/long-term
Daphnia magna = details: chronic/long-term; duration: 21 days; reproduction
Bibionidae = details: chronic/long-term; duration: 28 days
Canidae = details: chronic; duration: 1 years; oral; Dog Other; organ weight
Lepomis macrochirus = details: acute; duration: 96 hours; mortality
Oryctolagus sp. = details: reproduction developmental; reproduction

| SMILES | NOEC (Oncorhynchus mykiss) [mg/L] | LD50 (Bird; oral, mortality) | LD50 (Apis mellifera) [µg/piece] | LC50 (Tagia sp.; acute, mortality) [mg/kg] | NOEC (Tagia sp.; chronic/long-term) [g/ha] | NOAEL [1] [mg/kg-day] | NOEC (Daphnia magna) [mg/L] | LEL (Aphidius rhopalosiphi; chronic/long-term, reproduction) [g/ha] | LEL (Aphidius rhopalosiphi; not reported, mortality) [g/ha] | LD50 (Rattus norvegicus; acute, oral, mortality) [mg/kg] | NOAEL (Rattus norvegicus; chronic, duration: 2 years, organ weight) [mg/kg-day] | NOAEL (Rattus norvegicus; reproduction developmental, body weight) [mg/kg-day] | NOEC (Bibionidae) [mg/L] | NOAEL (Canidae) [mg/kg-day] | LC50 (Lepomis macrochirus) [µg/mL] | NOAEL (Oryctolagus sp.) [mg/kg-day] | NOEC (Bird; reproductive) [mg/kg-day] | LC50 (Bird; short-term, oral, feed, mortality) [mg/kg-day] |
| --- | --- | --- | --- | --- | --- | --- | --- | --- | --- | --- | --- | --- | --- | --- | --- | --- | --- | --- |
| COC(=O)[C@@H](C)Oc1ccc(Oc2ncc(C(F)(F)F)cc2Cl)cc1 [Haloxyfop-P-methyl] | 0.0052 | 1160 mg/kg-day | – | – | – | – | – | – | – | – | – | – | – | – | – | – | – | – |
| C[C@@H](Oc1ccc(Oc2ncc(C(F)(F)F)cc2Cl)cc1)C(=O)O [Haloxyfop-P] | – | 414 mg/kg | > 100 | 830 | 810 | 1 | 0.509 | 5.7 | 108 | 300 | 0.065 | 0.065 | 2.5 | 0.5 | 0.0884 (≈ 0.244 µM) | 7.5 | 17.1 | > 1110 |
